Measured values: the NIST ThermoML archive (doi:10.1021/je900387e)

Test: xn = mol fraction of the nth substance listed
Settings: Liquid, Pycnometric method

CCCCBr [1-bromobutane] + O=C=O
Settings	mass density [kg/m3]
308.2 K, 6320 kPa, x1 = 0.1495	1011
308.2 K, 6620 kPa, x1 = 0.0989	890
308.2 K, 6840 kPa, x1 = 0.0989	897
308.2 K, 6850 kPa, x1 = 0.0683	834
308.2 K, 6930 kPa, x1 = 0.0683	836
308.2 K, 6980 kPa, x1 = 0.0683	838
308.2 K, 7040 kPa, x1 = 0.0989	903
308.2 K, 7050 kPa, x1 = 0.0683	842
308.2 K, 7090 kPa, x1 = 0.0461	805
308.2 K, 7090 kPa, x1 = 0.0683	845
308.2 K, 7160 kPa, x1 = 0.0683	848
308.2 K, 7230 kPa, x1 = 0.0461	811
308.2 K, 7240 kPa, x1 = 0.0683	850
308.2 K, 7350 kPa, x1 = 0.0683	854
308.2 K, 7350 kPa, x1 = 0.0989	910
308.2 K, 7380 kPa, x1 = 0.0245	712
308.2 K, 7390 kPa, x1 = 0.0461	817
308.2 K, 7400 kPa, x1 = 0.0245	711
308.2 K, 7400 kPa, x1 = 0.1495	1018
308.2 K, 7420 kPa, x1 = 0.0245	713
308.2 K, 7440 kPa, x1 = 0.0245	716
308.2 K, 7450 kPa, x1 = 0.0683	858
308.2 K, 7480 kPa, x1 = 0.0245	720
308.2 K, 7520 kPa, x1 = 0.0245	724
308.2 K, 7540 kPa, x1 = 0.0683	861
308.2 K, 7550 kPa, x1 = 0.0461	823
308.2 K, 7590 kPa, x1 = 0.0245	729
308.2 K, 7640 kPa, x1 = 0.0245	734
308.2 K, 7660 kPa, x1 = 0.0461	827
308.2 K, 7660 kPa, x1 = 0.0683	864
308.2 K, 7700 kPa, x1 = 0.0245	738
308.2 K, 7700 kPa, x1 = 0.0989	916
308.2 K, 7750 kPa, x1 = 0.0461	830
308.2 K, 7770 kPa, x1 = 0.0245	743
308.2 K, 7780 kPa, x1 = 0.0683	867
308.2 K, 7830 kPa, x1 = 0.0245	747
308.2 K, 7850 kPa, x1 = 0.0461	833
308.2 K, 7920 kPa, x1 = 0.0245	752
308.2 K, 7950 kPa, x1 = 0.0461	836
308.2 K, 8010 kPa, x1 = 0.0245	757
308.2 K, 8060 kPa, x1 = 0.0461	839
308.2 K, 8090 kPa, x1 = 0.0245	762
308.2 K, 8120 kPa, x1 = 0.0989	924
308.2 K, 8190 kPa, x1 = 0.0461	843
308.2 K, 8190 kPa, x1 = 0.1495	1026
308.2 K, 8200 kPa, x1 = 0.0245	767
308.2 K, 8300 kPa, x1 = 0.0245	772
308.2 K, 8420 kPa, x1 = 0.0245	777
308.2 K, 8610 kPa, x1 = 0.0989	930
308.2 K, 8620 kPa, x1 = 0.0245	785
308.2 K, 8840 kPa, x1 = 0.0245	793
308.2 K, 9040 kPa, x1 = 0.1495	1033
308.2 K, 9100 kPa, x1 = 0.0245	801
308.2 K, 9190 kPa, x1 = 0.0989	938
308.2 K, 9370 kPa, x1 = 0.0245	809
308.2 K, 9680 kPa, x1 = 0.0245	818
308.2 K, 9820 kPa, x1 = 0.0989	944
308.2 K, 9960 kPa, x1 = 0.1495	1041
308.2 K, 10040 kPa, x1 = 0.0245	827
308.2 K, 10130 kPa, x1 = 0.0989	948
308.2 K, 10420 kPa, x1 = 0.0245	835
308.2 K, 10860 kPa, x1 = 0.0245	844
308.2 K, 10920 kPa, x1 = 0.1495	1048
308.2 K, 11350 kPa, x1 = 0.0245	853
308.2 K, 11370 kPa, x1 = 0.1495	1051
308.2 K, 11880 kPa, x1 = 0.0245	863
308.2 K, 11910 kPa, x1 = 0.1495	1055
308.2 K, 12480 kPa, x1 = 0.0245	873
308.2 K, 12510 kPa, x1 = 0.1495	1060
308.2 K, 13080 kPa, x1 = 0.1495	1063
308.2 K, 13130 kPa, x1 = 0.0245	882
308.2 K, 13590 kPa, x1 = 0.0245	889
308.2 K, 13640 kPa, x1 = 0.1495	1067
308.2 K, 14140 kPa, x1 = 0.0245	896
308.2 K, 14210 kPa, x1 = 0.1495	1071
308.2 K, 14290 kPa, x1 = 0.0245	899
308.2 K, 14850 kPa, x1 = 0.1495	1075
308.2 K, 15150 kPa, x1 = 0.1495	1077
313.1 K, 6900 kPa, x1 = 0.1495	986
313.1 K, 7230 kPa, x1 = 0.0989	875
313.1 K, 7250 kPa, x1 = 0.1495	991
313.1 K, 7480 kPa, x1 = 0.0683	811
313.1 K, 7510 kPa, x1 = 0.1495	994
313.1 K, 7520 kPa, x1 = 0.0989	881
313.1 K, 7590 kPa, x1 = 0.0683	814
313.1 K, 7670 kPa, x1 = 0.0683	817
313.1 K, 7680 kPa, x1 = 0.0461	756
313.1 K, 7730 kPa, x1 = 0.0461	758
313.1 K, 7760 kPa, x1 = 0.0683	820
313.1 K, 7770 kPa, x1 = 0.1495	997
313.1 K, 7820 kPa, x1 = 0.0461	764
313.1 K, 7830 kPa, x1 = 0.0989	882
313.1 K, 7860 kPa, x1 = 0.0683	823
